Assay results as given in ChEMBL document CHEMBL1287701, “Substituted N-{3-[(1,1-dioxido-1,2-benzothiazol-3-yl)(phenyl)amino]propyl}benzamide analogs as potent Kv1.3 ion channel blockers. Part 2” (Bioorg Med Chem Lett, 2010).
Converted amounts (≈) assume the structure as drawn.

Columns and labels:
[1] = molecular target: Potassium voltage-gated channel subfamily A member 5 (Homo sapiens, UniProt P22460); experiment: Inhibition of human Kv1.5 ion channel expressed in CHO K1 cells; type: cell-based
[2] = molecular target: Potassium voltage-gated channel subfamily A member 3 (Homo sapiens, UniProt P22001); experiment: Inhibition of human Kv1.3 ion channel expressed in CGE22 cells; type: cell-based
Rattus norvegicus = experiment: Dose normalised AUC in rat at 10 mg/kg, po; type: ADME, organism-based; set-up: dose 10 mg/kg, route oral; details: in vivo
[3] = Cmax in rat at 10 mg/kg, po; type: ADME, organism-based; set-up: dose 10 mg/kg, route oral; details: in vivo
[4] = Aqueous solubility of compound by chemiluminescent nitrogen detection analysis; type: physicochemical
[5] = Half life in rat liver microsome; type: ADME; details: liver microsomes

Sequence of Potassium voltage-gated channel subfamily A member 3 (P22001 whole entry): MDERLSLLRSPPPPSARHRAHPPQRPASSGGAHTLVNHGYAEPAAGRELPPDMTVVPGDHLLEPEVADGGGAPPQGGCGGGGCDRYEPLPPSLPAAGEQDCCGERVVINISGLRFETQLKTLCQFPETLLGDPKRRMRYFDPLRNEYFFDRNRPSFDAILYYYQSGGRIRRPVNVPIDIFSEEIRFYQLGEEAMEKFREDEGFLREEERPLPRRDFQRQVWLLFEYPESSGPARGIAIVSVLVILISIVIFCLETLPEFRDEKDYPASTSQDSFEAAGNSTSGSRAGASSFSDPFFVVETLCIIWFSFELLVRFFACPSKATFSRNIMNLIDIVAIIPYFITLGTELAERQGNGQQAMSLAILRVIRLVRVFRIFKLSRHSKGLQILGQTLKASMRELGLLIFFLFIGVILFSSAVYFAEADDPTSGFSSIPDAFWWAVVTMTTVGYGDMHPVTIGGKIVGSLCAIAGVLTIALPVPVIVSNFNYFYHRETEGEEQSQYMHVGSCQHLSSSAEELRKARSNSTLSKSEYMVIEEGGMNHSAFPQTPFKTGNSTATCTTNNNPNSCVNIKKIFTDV
Sequence of Potassium voltage-gated channel subfamily A member 5 (P22460 whole entry): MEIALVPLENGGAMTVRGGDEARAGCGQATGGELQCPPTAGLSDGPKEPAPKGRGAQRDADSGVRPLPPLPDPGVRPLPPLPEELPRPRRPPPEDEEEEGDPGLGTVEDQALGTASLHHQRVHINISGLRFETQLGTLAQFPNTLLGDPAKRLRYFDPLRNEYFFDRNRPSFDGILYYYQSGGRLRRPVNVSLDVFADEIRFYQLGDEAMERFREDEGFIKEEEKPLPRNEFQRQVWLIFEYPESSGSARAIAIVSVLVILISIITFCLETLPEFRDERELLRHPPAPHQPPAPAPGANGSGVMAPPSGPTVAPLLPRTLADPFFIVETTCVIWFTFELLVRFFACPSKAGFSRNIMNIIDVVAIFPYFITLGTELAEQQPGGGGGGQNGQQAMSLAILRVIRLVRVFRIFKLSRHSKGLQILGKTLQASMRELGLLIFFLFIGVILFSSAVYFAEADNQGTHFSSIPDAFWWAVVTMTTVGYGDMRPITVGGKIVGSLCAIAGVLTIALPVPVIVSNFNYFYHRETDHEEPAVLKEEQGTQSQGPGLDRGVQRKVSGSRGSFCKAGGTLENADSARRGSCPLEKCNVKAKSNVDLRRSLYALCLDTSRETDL

SMILES	IC50 [1]	IC50 [2]	other results
O=c1ccc2c(OCCCCOc3ccccc3)c3ccoc3cc2o1	3450 nM	–	–
CN1CCCC(C(=O)NCC(C)(C)CN(C2=NS(=O)(=O)c3cc(F)ccc32)c2ccccc2)C1 (configuration not stated)	13700 nM	12000 nM	–
CC(C)(CNC(=O)CC1CCCCO1)CN(C1=NS(=O)(=O)c2cc(F)ccc21)c1ccccc1 (configuration not stated)	780 nM	1350 nM	–
CC(C)(CNC(=O)C1(C#N)CC1)CN(C1=NS(=O)(=O)c2cc(F)ccc21)c1ccccc1	540 nM	350 nM	AUC (Rattus norvegicus): 630 ng·kg·h/mg/mL; Cmax [3]: 900 ng/mL; solubility [4]: 304 µM (≈ 138 µg/mL)
CC(C)(CNC(=O)c1ccc(F)cc1)CN(C1=NS(=O)(=O)c2ccccc21)c1ccccc1	–	160 nM	half-life [5]: < 15 min
CC(C)(CNC(=O)c1cccnc1O)CN(C1=NS(=O)(=O)c2cc(F)ccc21)c1ccccc1	9060 nM	10100 nM	–
CC(C)(CNC(=O)CC(F)(F)F)CN(C1=NS(=O)(=O)c2cc(F)ccc21)c1ccccc1	270 nM	150 nM	–
O=C(NCCCN(C1=NS(=O)(=O)c2ccccc21)c1ccccc1)c1ccc(F)cc1	–	–	half-life [5]: < 15 min
CC(C)(CNC(=O)C1CCCCO1)CN(C1=NS(=O)(=O)c2cc(F)ccc21)c1ccccc1 (configuration not stated)	440 nM	640 nM	–
CN1CCCC1C(=O)NCC(C)(C)CN(C1=NS(=O)(=O)c2cc(F)ccc21)c1ccccc1 (configuration not stated)	1390 nM	2560 nM	–
CC(C)(CNC(=O)C1CCCNC1)CN(C1=NS(=O)(=O)c2cc(F)ccc21)c1ccccc1 (configuration not stated)	> 50000 nM	> 50000 nM	–
CC(C)(CNC(=O)c1cocn1)CN(C1=NS(=O)(=O)c2cc(F)ccc21)c1ccccc1	900 nM	750 nM	–
CC(C)(CNC(=O)C1CCCCN1)CN(C1=NS(=O)(=O)c2cc(F)ccc21)c1ccccc1 (configuration not stated)	5970 nM	5900 nM	–
CC(C)(CNC(=O)c1cc2ccccc2o1)CN(C1=NS(=O)(=O)c2cc(F)ccc21)c1ccccc1	> 50000 nM	> 50000 nM	–
CC(C)(CNC(=O)C1(C#N)CCOCC1)CN(C1=NS(=O)(=O)c2cc(F)ccc21)c1ccccc1	560 nM	330 nM	–
Cn1ccnc1C(=O)NCC(C)(C)CN(C1=NS(=O)(=O)c2cc(F)ccc21)c1ccccc1	520 nM	550 nM	–
CC(C)(CNC(=O)c1cscn1)CN(C1=NS(=O)(=O)c2cc(F)ccc21)c1ccccc1	290 nM	540 nM	–
CC(C)(CNC(=O)c1ncccc1O)CN(C1=NS(=O)(=O)c2cc(F)ccc21)c1ccccc1	460 nM	320 nM	–
CC(C)(CNC(=O)C1CC1)CN(C1=NS(=O)(=O)c2cc(F)ccc21)c1ccccc1	490 nM	280 nM	–
CC(C)(CNC(=O)C(C)(O)C(F)(F)F)CN(C1=NS(=O)(=O)c2cc(F)ccc21)c1ccccc1 (configuration not stated)	480 nM	250 nM	AUC (Rattus norvegicus): 1630 ng·kg·h/mg/mL; Cmax [3]: 2100 ng/mL; solubility [4]: 52 µM (≈ 26.1 µg/mL)
COc1cnccc1C(=O)NCC(C)(C)CN(C1=NS(=O)(=O)c2cc(F)ccc21)c1ccccc1	370 nM	200 nM	–
CC(C)(CNC(=O)C1(C)CC1)CN(C1=NS(=O)(=O)c2cc(F)ccc21)c1ccccc1	370 nM	200 nM	–
CC(C)(CNC(=O)C1(N)CCCC1)CN(C1=NS(=O)(=O)c2cc(F)ccc21)c1ccccc1	2640 nM	1510 nM	–
CC(C)(CNC(=O)N1CCOCC1)CN(C1=NS(=O)(=O)c2cc(F)ccc21)c1ccccc1	–	340 nM	half-life [5]: 60 min
CC(C)(CNC(=O)C1CCOCC1(C)C)CN(C1=NS(=O)(=O)c2cc(F)ccc21)c1ccccc1 (configuration not stated)	960 nM	840 nM	–
CC(C)(CNC(=O)C1(C(F)(F)F)CC1)CN(C1=NS(=O)(=O)c2cc(F)ccc21)c1ccccc1	240 nM	80 nM	–
CC(C)(CNC(=O)N1CCCC1)CN(C1=NS(=O)(=O)c2cc(F)ccc21)c1ccccc1	340 nM	300 nM	–

SMILES	IC50 [1]	IC50 [2]	other results
CC(C)(CNC(=O)C1(C(F)(F)F)CCC1)CN(C1=NS(=O)(=O)c2cc(F)ccc21)c1ccccc1	320 nM	90 nM	–
CC(C)(CNC(=O)C1CC1(F)F)CN(C1=NS(=O)(=O)c2cc(F)ccc21)c1ccccc1 (configuration not stated)	320 nM	140 nM	–
CC(C)(CNC(=O)c1cccc(C(F)(F)F)c1)CN(C1=NS(=O)(=O)c2ccccc21)c1ccccc1	–	560 nM	half-life [5]: < 15 min
CC(C)(CNC(=O)C1(C(=O)O)CC1)CN(C1=NS(=O)(=O)c2cc(F)ccc21)c1ccccc1	> 50000 nM	> 50000 nM	–
CC(C)(CNC(=O)C1CCCO1)CN(C1=NS(=O)(=O)c2cc(F)ccc21)c1ccccc1 (configuration not stated)	830 nM	360 nM	–
CN1CCCCC1C(=O)NCC(C)(C)CN(C1=NS(=O)(=O)c2cc(F)ccc21)c1ccccc1 (configuration not stated)	2880 nM	3400 nM	–
CC(C)(CNC(=O)C1COCCN1)CN(C1=NS(=O)(=O)c2cc(F)ccc21)c1ccccc1 (configuration not stated)	2000 nM	1260 nM	–
CN1CCC(C(=O)NCC(C)(C)CN(C2=NS(=O)(=O)c3cc(F)ccc32)c2ccccc2)CC1	> 50000 nM	> 50000 nM	–
CC(=O)NCC(C)(C)CN(C1=NS(=O)(=O)c2cc(F)ccc21)c1ccccc1	1180 nM	1180 nM	–
CC(C)(CNC(=O)c1cnccn1)CN(C1=NS(=O)(=O)c2cc(F)ccc21)c1ccccc1	350 nM	230 nM	–
CC(C)(CNC(=O)c1ccoc1)CN(C1=NS(=O)(=O)c2cc(F)ccc21)c1ccccc1	360 nM	150 nM	–
CC(C)(CNC(=O)C1(O)CCOCC1)CN(C1=NS(=O)(=O)c2cc(F)ccc21)c1ccccc1	1980 nM	1070 nM	–
CC(C)(CNC(=O)C1(O)CCCCC1)CN(C1=NS(=O)(=O)c2cc(F)ccc21)c1ccccc1	450 nM	350 nM	–
CC(C)(CNC(=O)C1CCOCC1)CN(C1=NS(=O)(=O)c2ccccc21)c1ccccc1	–	700 nM	half-life [5]: 32 min
CNC(=O)NCC(C)(C)CN(C1=NS(=O)(=O)c2cc(F)ccc21)c1ccccc1	2220 nM	3080 nM	–
CC(C)(CNC(=O)C1(O)CCC(F)(F)CC1)CN(C1=NS(=O)(=O)c2cc(F)ccc21)c1ccccc1	630 nM	390 nM	–
Cn1cnc(C(=O)NCC(C)(C)CN(C2=NS(=O)(=O)c3cc(F)ccc32)c2ccccc2)c1	13900 nM	13100 nM	–
CC(C)(CNC(=O)C1(O)CC1)CN(C1=NS(=O)(=O)c2cc(F)ccc21)c1ccccc1	1350 nM	820 nM	–
CC(C)(CNC(=O)N1CCOCC1)CN(C1=NS(=O)(=O)c2ccccc21)c1ccccc1	–	470 nM	half-life [5]: 30 min
CC(C)(CNC(=O)c1cc[nH]c1)CN(C1=NS(=O)(=O)c2cc(F)ccc21)c1ccccc1	1320 nM	1150 nM	–
CC(C)(CNC(=O)C1(N)CC1)CN(C1=NS(=O)(=O)c2cc(F)ccc21)c1ccccc1	790 nM	530 nM	–
CC(CNC(=O)c1ccc(F)cc1)CN(C1=NS(=O)(=O)c2ccccc21)c1ccccc1 (configuration not stated)	–	440 nM	half-life [5]: 22 min
CC(C)(CNC(=O)c1ccncc1O)CN(C1=NS(=O)(=O)c2cc(F)ccc21)c1ccccc1	> 50000 nM	> 50000 nM	–
CC(C)(CNC(=O)C1CCOCC1)CN(C1=NS(=O)(=O)c2cc(F)ccc21)c1ccccc1	–	530 nM	half-life [5]: 26 min
CC(C)(CNC(=O)c1ccco1)CN(C1=NS(=O)(=O)c2cc(F)ccc21)c1ccccc1	410 nM	200 nM	–
CC(C)(CNC(=O)c1cccc(C(F)(F)F)c1)CN(C1=NS(=O)(=O)c2cc(F)ccc21)c1ccccc1	–	700 nM	half-life [5]: 39 min
CC(C)(CNC(=O)C1(O)CCCC1)CN(C1=NS(=O)(=O)c2cc(F)ccc21)c1ccccc1	730 nM	470 nM	–
